Where two headings read alike, the source gives them in different places. Where a SMILES comes first, the peptide text is derived from it. [ ]: non-standard residue; d: D form. The star is where a group is joined. Arachidoyl = CCCCCCCCCCCCCCCCCCCC(=O)*; Palmitoyl = CCCCCCCCCCCCCCCC(=O)*; hPhe = N[C@@H](CCc1ccccc1)C(=O)O; β3hK = NCCCC[C@H](N)CC(=O)O
Columns and labels:
ZIKA protease = biological target: T1, ZIKA protease (Zika virus, UniProt Q32ZE1); assay: biochemical; conditions: for inhibition at 1 µM / inhibition at 50 µM: read-out: inhibition of ZIKV
T1 construct: a trypsin-like serine protease domain in the N-terminal region of the flaviviral NS3 proteins
Experimental: (§1) By catalytic activity of the protease, the cleaved substrate results in increased fluorescence that can be monitored using a BMG Labtech Fluostar OPTIMA Microtiter fluorescence plate reader (excitation wavelength of 320 nm and a monitored emission wavelength of 405 nm). Dilutions were made starting from 10 mM stock solutions in DMSO and final concentrations were measured in triplicates. The inhibitors were preincubated for 15 min with DENV protease (100 nM) in the assay buffer (50 mM Tris-HCl pH 9.0, ethylene glycol (10% v/v), and 0.0016% Brij 58). The enzymatic reaction was initiated by the addition of the FRET substrate (final concentration 50 μM) to obtain a final assay volume of 100 μL per well. The enzymatic activity was monitored for 15 min and determined as a slope of relative fluorescence units per second (RFU/s) for each concentration. The mean of the triplicates were plotted against the corresponding concentration in CDDVault to determine the IC50-values. Analogous procedures were used to determine the inhibitory potency on WNV (Kühl et al., J. Med. Chem. 2020, 63 (15): 8179-8197) and ZIKA protease (Nitsche et al., ACS Med. Chem. Lett. 2019 Feb. 14; 10 (2): 168-174). For selectivity screening of active candidates, similar biochemical assays with human serine proteases trypsin (Weigel et al., J. Med. Chem. 2015, 58 (19), 7719-7733.) and/or thrombin (Nitsche et al., J. Med. Chem. 2013, 56 (21), 8389-8403) were used.

human Thrombin = human Thrombin (Homo sapiens, UniProt P00734); assay: Selectivity screening, human serine protease thrombin; type: biochemical; conditions: read-out: inhibition of human Thrombin
Experimental: as §1

WNV protease [1] = biological target: T2, WNV protease (West Nile virus, UniProt P06935); assay: WNV protease assay (analogous procedure); type: biochemical; conditions: read-out: IC50 for WNNV
T2 construct: a trypsin-like serine protease domain in the N-terminal region of the flaviviral NS3 proteins

DENV protease = biological target: T3, DENV protease (Dengue virus type 2, UniProt P29990); assay: biochemical; conditions: read-out: inhibition of DENV
T3 construct: The virus-encoded dengue protease comprises the amino-terminal 180 amino acids of NS3 (NS3pro) of the polyprotein
Procedure, shortened: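 DENV protease (100 nM) was pre-incubated 15 min with inhibitors in 50 mM Tris-HCl pH 9.0, 10% ethylene glycol, 0.0016% Brij 58. FRET substrate (50 μM final) started the reaction, monitored 15 min as RFU/s slope. IC50 came from triplicate means versus concentration.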

WNV protease [2] = biological target: T2, WNV protease; assay: WNV protease assay (analogous procedure); type: biochemical
Experimental: as §1

human Trypsin = human Trypsin (Homo sapiens, UniProt P07477); assay: Selectivity screening, human serine protease trypsin; type: biochemical; conditions: read-out: inhibition of human Trypsin
Experimental: as §1

T2 sequence (P06935 1424-1463): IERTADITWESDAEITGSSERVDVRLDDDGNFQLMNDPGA
T2 sequence (P06935 1502-1679): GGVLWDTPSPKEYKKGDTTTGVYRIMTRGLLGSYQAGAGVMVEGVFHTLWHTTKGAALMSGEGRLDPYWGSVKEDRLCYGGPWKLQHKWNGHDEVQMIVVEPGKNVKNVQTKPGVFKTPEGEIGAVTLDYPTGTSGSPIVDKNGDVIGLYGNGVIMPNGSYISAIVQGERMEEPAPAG
T3 sequence (P29990 1398-1437): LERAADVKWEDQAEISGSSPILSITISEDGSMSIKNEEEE
T3 sequence (P29990 1476-1653): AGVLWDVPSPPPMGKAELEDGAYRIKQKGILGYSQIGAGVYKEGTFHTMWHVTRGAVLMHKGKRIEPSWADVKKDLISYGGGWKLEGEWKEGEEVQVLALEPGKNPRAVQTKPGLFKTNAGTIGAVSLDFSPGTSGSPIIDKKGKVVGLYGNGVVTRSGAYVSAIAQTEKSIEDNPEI
T1 sequence (Q32ZE1 1499-1676): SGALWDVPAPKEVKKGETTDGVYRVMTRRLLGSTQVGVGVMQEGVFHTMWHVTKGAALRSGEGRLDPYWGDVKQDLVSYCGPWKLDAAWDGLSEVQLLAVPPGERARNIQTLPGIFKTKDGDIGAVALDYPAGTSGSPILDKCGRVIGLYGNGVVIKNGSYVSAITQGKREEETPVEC
T1 sequence (Q32ZE1 1421-1460): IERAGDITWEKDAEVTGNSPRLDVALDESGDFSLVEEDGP

Row | SMILES | IC50 (ZIKA protease) | inhibition at 1 µM (ZIKA protease; at 1 μM) | inhibition at 50 µM (ZIKA protease; at 50 μM) | inhibition at 5 µM (human Thrombin; at 5 μM) | IC50 (WNV protease [1]) | EC50 (West Nile virus) | inhibition at 50 µM (DENV protease) | inhibition at 50 µM (WNV protease [2]) | inhibition at 5 µM (human Trypsin; at 5 μM) | inhibition at 25 µM (human Trypsin; at 25 μM) | EC50 (ZIKV) | inhibition at 1 µM (DENV protease; at 1 μM) | inhibition at 1 µM (ZIKA protease) | inhibition at 50 µM (ZIKA protease) | inhibition at 5 µM (human Thrombin) | inhibition at 5 µM (human Trypsin) | inhibition at 25 µM (human Trypsin) | inhibition at 1 µM (DENV protease) | inhibition at 1 µM (WNV protease [2]; at 1 μM, read-out: inhibition of WNNV)
1 | CCCCCCCCCCCCCCCC(=O)N[C@@H](CCCCN)C(=O)N[C@@H](C)C(=O)N[C@@H](C)C(=O)N[C@@H](CCCCN)C(=O)C(N)=O [compound 9] | ≤ 25 µM | ≥ 10% | ≥ 65% | < 5% | ≤ 40 µM | ≤ 25 µM | ≥ 25% | ≥ 25% | – | – | – | – | – | – | – | – | – | – | –
2 | CCCCCCCCCCCCCCCC(=O)N[C@@H](CCCCN)C(=O)N1CCC[C@H]1C(=O)N[C@@H](C)C(=O)N[C@@H](CCCCN)C(=O)C(N)=O [compound 10] | ≤ 25 µM | – | ≥ 65% | < 5% | ≤ 40 µM | ≤ 25 µM | ≥ 25% | ≥ 25% | < 10% | – | – | – | – | – | – | – | – | – | –
3 | CCCCCCCCCCCCCCCC(=O)N[C@H](CCCNC(=N)N)C(=O)N[C@@H](CCC(N)=O)C(=O)N[C@@H](Cc1ccccc1)C(N)=O [compound 44] (Palmitoyl-[dR]-Gln-Phe-NH2) | ≤ 25 µM | ≥ 10% | ≥ 65% | < 5% | ≤ 40 µM | ≤ 25 µM | ≥ 25% | ≥ 25% | < 10% | < 20% | ≤ 10 µM | – | – | – | – | – | – | – | –
4 | CCCCCCCCCCCCCCCC(=O)N[C@@H](CCCNC(=N)N)C(=O)N[C@@H](CCC(N)=O)C(=O)N[C@H](Cc1ccccc1)C(N)=O [compound 49] (Palmitoyl-Arg-Gln-[dF]-NH2) | ≤ 25 µM | ≥ 10% | ≥ 65% | – | – | – | ≥ 25% | – | – | – | ≤ 10 µM | ≥ 20% | – | – | – | – | – | – | –
5 | CCCCCCCCCCCCCCCC(=O)N[C@@H](CCCNC(=N)N)C(=O)N[C@@H](CC(N)=O)C(=O)N[C@@H](Cc1ccccc1)C(N)=O [compound 50] (Palmitoyl-Arg-Asn-Phe-NH2) | ≤ 25 µM | ≥ 10% | ≥ 65% | – | – | ≤ 25 µM | ≥ 25% | – | – | – | ≤ 10 µM | ≥ 20% | – | – | – | – | – | – | –
6 | CCCCCCCCCCCCCCCC(=O)N[C@@H](CCCNC(=N)N)C(=O)N[C@@H](C)C(=O)N[C@@H](CCc1ccccc1)C(N)=O [compound 51] (Palmitoyl-Arg-Ala-[hPhe]-NH2) | ≤ 25 µM | ≥ 10% | ≥ 65% | – | – | ≤ 25 µM | ≥ 25% | – | – | – | ≤ 10 µM | ≥ 20% | – | – | – | – | – | – | –
7 | CCCCCCCCCCCCCCCC(=O)N[C@@H](CCCNC(=N)N)C(=O)N[C@@H](CCC(N)=O)C(=O)N[C@@H](CCc1ccccc1)C(N)=O [compound 53] (Palmitoyl-Arg-Gln-[hPhe]-NH2) | ≤ 25 µM | – | ≥ 65% | – | – | ≤ 25 µM | ≥ 25% | – | – | – | ≤ 10 µM | – | – | – | – | – | – | – | –
8 | CCCCCCCCCCCCCCCC(=O)N[C@@H](C)C(=O)N[C@@H](CCCNC(=N)N)C(=O)N[C@@H](CCC(N)=O)C(=O)N[C@@H](Cc1ccccc1)C(N)=O [compound 54] (Palmitoyl-ARQF-NH2) | ≤ 25 µM | ≥ 10% | ≥ 65% | – | – | ≤ 25 µM | ≥ 25% | – | – | – | ≤ 10 µM | – | – | – | – | – | – | – | –
9 | CCCCCCCCCCCCCCCC(=O)N[C@@H](CCCCN)CC(=O)N[C@@H](C)C(=O)N[C@H](C)C(=O)N[C@@H](CCCCN)C(N)=O [compound 114] (Palmitoyl-[β3hK]A[dA]K-NH2) | ≤ 25 µM | ≥ 10% | ≥ 65% | – | ≤ 40 µM | ≤ 25 µM | ≥ 25% | – | < 10% | < 20% | ≤ 10 µM | ≥ 20% | – | – | – | – | – | – | –
10 | CCCCCCCCCCCCCCCC(=O)N[C@@H](CCCCN)C(=O)N1CCC[C@H]1C(=O)N[C@@H](C)C(=O)N[C@H](Cc1ccccc1)C(N)=O [compound 123] (Palmitoyl-KPA[dF]-NH2) | ≤ 25 µM | ≥ 10% | ≥ 65% | < 5% | ≤ 40 µM | – | ≥ 25% | ≥ 25% | < 10% | < 20% | – | – | – | – | – | – | – | – | –
11 | CCCCCCCCCCCCCCCCCCCC(=O)N[C@@H](CCCCN)C(=O)N1CCC[C@H]1C(=O)N[C@@H](C)C(=O)N[C@@H](CCCCN)C(N)=O [compound 125] (Arachidoyl-KPAK-NH2) | ≤ 25 µM | ≥ 10% | ≥ 65% | < 5% | ≤ 40 µM | – | ≥ 25% | ≥ 25% | < 10% | < 20% | – | ≥ 20% | – | – | – | – | – | – | –
12 | CCCCCCCCCCCCCCCC(=O)N[C@@H](CCCCN)C(=O)N1CCC[C@H]1C(=O)N[C@@H](C)C(=O)N[C@@H](C(N)=O)c1ccc(OCc2ccccc2)cc1 [compound 129] | ≤ 25 µM | – | – | – | ≤ 40 µM | – | ≥ 25% | ≥ 25% | – | – | – | – | ≥ 10% | ≥ 65% | < 5% | < 10% | < 20% | ≥ 20% | –
13 | CCCCCCCCCCCCCCCC(=O)N[C@@H](CCCCN)C(=O)N[C@@H](C)C(=O)N[C@@H](C)C(=O)N[C@H](CCCCN)C(=O)c1ccccc1 [compound 136] | ≤ 25 µM | – | – | – | ≤ 40 µM | ≤ 25 µM | ≥ 25% | ≥ 25% | – | – | – | – | ≥ 10% | ≥ 65% | < 5% | < 10% | < 20% | ≥ 20% | –
14 | CCCCCCCCCCCCCCCC(=O)N[C@@H](CCCCN)C(=O)N[C@@H](C)C(=O)N[C@@H](C)C(=O)N[C@@H](CCCCN)C(=O)c1ccccc1 [compound 137] | ≤ 25 µM | – | – | – | ≤ 40 µM | – | ≥ 25% | ≥ 25% | – | – | – | – | ≥ 10% | ≥ 65% | < 5% | < 10% | < 20% | ≥ 20% | ≥ 10%
15 | CCCCCCCCCCCCCCCC(=O)N[C@@H](CCCCN)C(=O)N[C@@H](C)C(=O)N[C@@H](C)C(=O)N[C@@H](Cc1cnc[nH]1)C(N)=O [compound 168] (Palmitoyl-KAAH-NH2) | ≤ 25 µM | ≥ 10% | ≥ 65% | < 5% | ≤ 40 µM | – | ≥ 25% | ≥ 25% | < 10% | < 20% | – | – | – | – | – | – | – | – | –
16 | CCCCCCCCCCCCCCCC(=O)N[C@@H](CCCCN)C(=O)N[C@@H](C)C(=O)N[C@@H](C)C(=O)N[C@H](Cc1c[nH]cn1)C(N)=O [compound 171] (Palmitoyl-KAA[dH]-NH2) | ≤ 25 µM | – | ≥ 65% | < 5% | ≤ 40 µM | – | ≥ 25% | ≥ 25% | < 10% | < 20% | – | – | – | – | – | – | – | – | –
17 | CCCCCCCCCCCCCCCC(=O)N[C@@H](CCCCN)C(=O)N[C@@H](C)C(=O)N[C@@H](CCCCN)C(C)=O [compound 175] | ≤ 25 µM | – | ≥ 65% | < 5% | ≤ 40 µM | – | ≥ 25% | ≥ 25% | < 10% | < 20% | – | – | – | – | – | – | – | – | –
18 | CCCCCCCCCCCCCCCC(=O)N[C@@H](CCCCN)C(=O)N[C@@H](C)C(=O)N[C@@H](C)C(=O)N[C@@H](CCCCN)C(=O)O [compound 189] (Palmitoyl-KAAK-OH) | ≤ 25 µM | ≥ 10% | ≥ 65% | < 5% | ≤ 40 µM | ≤ 25 µM | ≥ 25% | – | < 10% | < 20% | ≤ 10 µM | – | – | – | – | – | – | – | –
